Like-named read-outs stand apart in the source and are kept apart here. One block for each compound: values may come before it. *1 amine or outer side, *2 acyl side, *3 side chain or, on linkers, in order; H or OH if unused. Where a SMILES comes first, the peptide text is derived from it. Side-chain parts run from the residue outwards. [ ]: non-standard residue; d: D form. The star is where a group is joined. γGlu = O=C(O)[C@H](CCC(=O)[*:2])N[*:1]; Palmitoyl = CCCCCCCCCCCCCCCC(=O)*; Aib = CC(C)(N)C(=O)O
Legend:
GIP receptor = molecular target: T1, GIP receptor (Homo sapiens, UniProt P48546); test: cAMP induction, firefly luciferase reporter assay in HEK293 cells co-transfected with GIP receptor; format: cell-based
T1 sequence (P48546 22-466): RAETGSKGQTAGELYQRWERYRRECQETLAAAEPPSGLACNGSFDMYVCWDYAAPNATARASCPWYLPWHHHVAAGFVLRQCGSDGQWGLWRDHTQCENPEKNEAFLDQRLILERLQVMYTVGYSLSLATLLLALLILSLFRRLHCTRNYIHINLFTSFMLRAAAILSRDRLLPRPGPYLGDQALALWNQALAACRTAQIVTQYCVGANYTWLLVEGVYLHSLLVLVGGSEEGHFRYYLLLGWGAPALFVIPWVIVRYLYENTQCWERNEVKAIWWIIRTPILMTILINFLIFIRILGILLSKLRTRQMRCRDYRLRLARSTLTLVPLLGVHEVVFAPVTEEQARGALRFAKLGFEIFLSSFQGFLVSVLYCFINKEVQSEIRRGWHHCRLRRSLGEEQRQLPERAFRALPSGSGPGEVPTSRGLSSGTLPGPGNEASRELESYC

GLP-1 receptor = molecular target: T2, GLP-1 receptor (Homo sapiens, UniProt P43220); test: cAMP induction, firefly luciferase reporter assay in HEK293 cells co-transfected with GLP-1 receptor; format: cell-based
T2 construct: expressed in transfected cells; host or cells: HEK293
T2 sequence (P43220 24-463): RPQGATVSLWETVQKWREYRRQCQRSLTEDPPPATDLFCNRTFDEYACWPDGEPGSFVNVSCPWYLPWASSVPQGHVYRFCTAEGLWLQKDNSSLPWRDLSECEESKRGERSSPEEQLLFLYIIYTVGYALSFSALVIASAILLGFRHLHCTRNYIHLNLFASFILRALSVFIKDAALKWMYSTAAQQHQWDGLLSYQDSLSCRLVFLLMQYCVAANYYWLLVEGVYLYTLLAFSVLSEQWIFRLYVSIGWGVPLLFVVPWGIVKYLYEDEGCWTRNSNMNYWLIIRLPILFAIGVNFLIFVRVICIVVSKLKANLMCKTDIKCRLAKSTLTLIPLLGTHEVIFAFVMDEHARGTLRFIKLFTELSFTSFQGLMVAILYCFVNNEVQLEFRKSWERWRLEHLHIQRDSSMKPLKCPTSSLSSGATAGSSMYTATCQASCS
Description: This example describes an exemplary method of testing the biological activity of the peptides of the present disclosures, which method involves assaying cAMP synthesis.

[1] = EC50 (nM) at GLP-1 Receptor, Table 6, Example 12

SMILES: CC[C@H](C)[C@H](NC(=O)[C@H](CO)NC(=O)[C@H](Cc1ccc(O)cc1)NC(=O)[C@H](CC(=O)O)NC(=O)[C@H](CO)NC(=O)[C@@H](NC(=O)[C@H](Cc1ccccc1)NC(=O)[C@@H](NC(=O)CNC(=O)[C@H](CCC(N)=O)NC(=O)[C@@H](CO)NC(=O)[C@@H](N)Cc1c[nH]cn1)[C@@H](C)O)[C@@H](C)O)C(=O)N[C@@H](Cc1ccc(O)cc1)C(=O)N[C@@H](CC(C)C)C(=O)N[C@@H](CC(=O)O)C(=O)N[C@@H](CCCCN)C(=O)N[C@@H](CCC(N)=O)C(=O)N[C@@H](C)C(=O)N[C@@H](C)C(=O)NC(C)(C)C(=O)N[C@@H](CCC(=O)O)C(=O)N[C@@H](Cc1ccccc1)C(=O)N[C@H](C(=O)N[C@@H](CC(N)=O)C(=O)N[C@@H](Cc1c[nH]c2ccccc12)C(=O)N[C@@H](CC(C)C)C(=O)N[C@@H](CC(C)C)C(=O)N[C@@H](C)C(=O)NCC(=O)NCC(=O)N1CCC[C@H]1C(=O)N[C@@H](CO)C(=O)N[C@@H](CO)C(=O)NCC(=O)N[C@@H](C)C(=O)N1CCC[C@H]1C(=O)N1CCC[C@H]1C(=O)N1CCC[C@H]1C(=O)N[C@@H](CO)C(=O)N[C@@H](CS)C(N)=O)C(C)C [compound 48] (H-H[dS]QGTFTSDYSIYLDKQAA[Aib]EFVNWLLAGGPSSGAPPPSC-NH2; N-terminus assumed)
EC50 (GIP receptor; EC50 (nM) at GIP Receptor, Table 6, Example 12): 0.433 nM
EC50 (GLP-1 receptor; [1]): 0.01 nM

SMILES: CC[C@H](C)[C@H](NC(=O)[C@H](CO)NC(=O)[C@H](Cc1ccc(O)cc1)NC(=O)[C@H](CC(=O)O)NC(=O)[C@H](CO)NC(=O)[C@@H](NC(=O)[C@H](Cc1ccccc1)NC(=O)[C@@H](NC(=O)CNC(=O)[C@H](CCC(N)=O)NC(=O)C(C)(C)NC(=O)[C@@H](N)Cc1ccc(O)cc1)[C@@H](C)O)[C@@H](C)O)C(=O)N[C@@H](Cc1ccc(O)cc1)C(=O)N[C@@H](CC(C)C)C(=O)N[C@@H](CC(=O)O)C(=O)N[C@@H](CCCCN)C(=O)N[C@@H](CCCCN)C(=O)N[C@@H](C)C(=O)N[C@@H](C)C(=O)NC(C)(C)C(=O)N[C@@H](CCC(=O)O)C(=O)N[C@@H](Cc1ccccc1)C(=O)N[C@H](C(=O)N[C@@H](CC(N)=O)C(=O)N[C@@H](Cc1c[nH]c2ccccc12)C(=O)N[C@@H](CC(C)C)C(=O)N[C@@H](CC(C)C)C(=O)N[C@@H](C)C(=O)NCC(=O)NCC(=O)N1CCC[C@H]1C(=O)N[C@@H](CO)C(=O)N[C@@H](CO)C(=O)NCC(=O)N[C@@H](C)C(=O)N1CCC[C@H]1C(=O)N1CCC[C@H]1C(=O)N1CCC[C@H]1C(=O)N[C@@H](CO)C(=O)N[C@@H](CCCCN)C(N)=O)C(C)C [mt-402]
EC50 (GLP-1 receptor; read-out: GLP-1 Receptor EC50, Table 1, Example 6): 0.007 nM

SMILES: CCCCCCCCCCCCCCCC(=O)N[C@@H](CCC(=O)NCCCC[C@H](NC(=O)[C@H](CC(=O)O)NC(=O)[C@H](CO)NC(=O)[C@@H](NC(=O)[C@H](Cc1ccccc1)NC(=O)[C@@H](NC(=O)CNC(=O)[C@H](CCC(=O)O)NC(=O)C(C)(C)NC(=O)[C@@H](N)Cc1c[nH]cn1)[C@@H](C)O)[C@@H](C)O)C(=O)N[C@@H](CO)C(=O)N[C@@H](CCCCN)C(=O)N[C@@H](Cc1ccc(O)cc1)C(=O)N[C@@H](CC(C)C)C(=O)N[C@@H](CC(=O)O)C(=O)N[C@@H](CCC(=O)O)C(=O)N[C@@H](CCCNC(=N)N)C(=O)N[C@@H](C)C(=O)N[C@@H](C)C(=O)N[C@@H](CCC(N)=O)C(=O)N[C@@H](CC(=O)O)C(=O)N[C@@H](Cc1ccccc1)C(=O)N[C@H](C(=O)N[C@@H](CCC(N)=O)C(=O)N[C@@H](Cc1c[nH]c2ccccc12)C(=O)N[C@@H](CC(C)C)C(=O)N[C@@H](CC(C)C)C(=O)N[C@@H](CC(=O)O)C(=O)NCC(=O)NCC(=O)N1CCC[C@H]1C(=O)N[C@@H](CO)C(=O)N[C@@H](CO)C(=O)NCC(=O)N[C@@H](C)C(=O)N1CCC[C@H]1C(=O)N1CCC[C@H]1C(=O)N1CCC[C@H]1C(=O)N[C@@H](CO)C(N)=O)C(C)C)C(=O)O [compound 80] (H-H[Aib]EGTFTSDK([γGlu-Palmitoyl])SKYLDERAAQDFVQWLLDGGPSSGAPPPS-NH2; N-terminus assumed)
EC50 (GLP-1 receptor; [1]): 0.008 nM

SMILES: CCCCCCCCCCCCCCCC(=O)N[C@@H](CCC(=O)NCCCC[C@H](NC(=O)[C@H](CC(=O)O)NC(=O)[C@H](CO)NC(=O)[C@@H](NC(=O)[C@H](Cc1ccccc1)NC(=O)[C@@H](NC(=O)CNC(=O)[C@H](CCC(=O)O)NC(=O)C(C)(C)NC(=O)[C@@H](N)Cc1c[nH]cn1)[C@@H](C)O)[C@@H](C)O)C(=O)N[C@@H](CO)C(=O)N[C@@H](CCCCN)C(=O)N[C@@H](Cc1ccc(O)cc1)C(=O)N[C@@H](CC(C)C)C(=O)N[C@@H](CC(=O)O)C(=O)N[C@@H](CCC(=O)O)C(=O)N[C@@H](CCCNC(=N)N)C(=O)N[C@@H](CCCNC(=N)N)C(=O)N[C@@H](C)C(=O)NC(C)(C)C(=O)N[C@@H](CCC(=O)O)C(=O)N[C@@H](Cc1ccccc1)C(=O)N[C@H](C(=O)N[C@@H](CCC(N)=O)C(=O)N[C@@H](Cc1c[nH]c2ccccc12)C(=O)N[C@@H](CC(C)C)C(=O)N[C@@H](CC(C)C)C(=O)N[C@@H](CC(=O)O)C(=O)NCC(=O)NCC(=O)N1CCC[C@H]1C(=O)N[C@@H](CO)C(=O)N[C@@H](CO)C(=O)NCC(=O)N[C@@H](C)C(=O)N1CCC[C@H]1C(=O)N1CCC[C@H]1C(=O)N1CCC[C@H]1C(=O)N[C@@H](CO)C(N)=O)C(C)C)C(=O)O [compound 38] (H-H[Aib]EGTFTSDK([γGlu-Palmitoyl])SKYLDERRA[Aib]EFVQWLLDGGPSSGAPPPS-NH2; N-terminus assumed)
EC50 (GLP-1 receptor; EC50 (nM) at GLP-1 Receptor, Table 4, Example 9, composite of multiple different activity assays): 0.008 nM

SMILES: CCCCCCCCCCCCCCCC(=O)N[C@@H](CCC(=O)NCCCC[C@H](NC(=O)[C@H](CC(=O)O)NC(=O)[C@H](CO)NC(=O)[C@@H](NC(=O)[C@H](Cc1ccccc1)NC(=O)[C@@H](NC(=O)CNC(=O)[C@H](CCC(N)=O)NC(=O)C(C)(C)NC(=O)[C@@H](N)Cc1c[nH]cn1)[C@@H](C)O)[C@@H](C)O)C(=O)N[C@@H](CO)C(=O)N[C@@H](CCCCN)C(=O)N[C@@H](Cc1ccc(O)cc1)C(=O)N[C@@H](CC(C)C)C(=O)N[C@@H](CC(=O)O)C(=O)N[C@@H](CCC(=O)O)C(=O)N[C@@H](CCCNC(=N)N)C(=O)N[C@@H](CCCNC(=N)N)C(=O)N[C@@H](C)C(=O)NC(C)(C)C(=O)N[C@@H](CCC(=O)O)C(=O)N[C@@H](Cc1ccccc1)C(=O)N[C@H](C(=O)N[C@@H](CCC(N)=O)C(=O)N[C@@H](Cc1c[nH]c2ccccc12)C(=O)N[C@@H](CC(C)C)C(=O)N[C@@H](CC(C)C)C(=O)N[C@@H](CC(=O)O)C(=O)NCC(=O)NCC(=O)N1CCC[C@H]1C(=O)N[C@@H](CO)C(=O)N[C@@H](CO)C(=O)NCC(=O)N[C@@H](C)C(=O)N1CCC[C@H]1C(=O)N1CCC[C@H]1C(=O)N1CCC[C@H]1C(=O)N[C@@H](CO)C(N)=O)C(C)C)C(=O)O [SEQ ID NO: 37] (H-H[Aib]QGTFTSDK([γGlu-Palmitoyl])SKYLDERRA[Aib]EFVQWLLDGGPSSGAPPPS-NH2; N-terminus assumed)
EC50 (GIP receptor; GIP (0.01), Table 8, Example 14, activity at the GIP receptor): 0.003 nM

EC50 (GLP-1 receptor; GLP-1 EC50 (nM), Table 17, Example 25): 0.222 nM
SMILES: CC[C@H](C)[C@H](NC(=O)[C@H](CO)NC(=O)[C@H](Cc1ccc(O)cc1)NC(=O)[C@H](CC(=O)O)NC(=O)[C@H](CO)NC(=O)[C@@H](NC(=O)[C@H](Cc1ccccc1)NC(=O)[C@@H](NC(=O)CNC(=O)[C@H](CCC(N)=O)NC(=O)C(C)(C)NC(=O)[C@@H](N)Cc1c[nH]cn1)[C@@H](C)O)[C@@H](C)O)C(=O)N[C@@H](Cc1ccc(O)cc1)C(=O)N[C@@H](CC(C)C)C(=O)N[C@@H](CC(=O)O)C(=O)N[C@@H](CCC(=O)O)C(=O)N[C@@H](CCCCN)C(=O)N[C@@H](CCCNC(=N)N)C(=O)N[C@@H](C)C(=O)N[C@@H](CCCCN)C(=O)N[C@@H](CCC(=O)O)C(=O)N[C@@H](Cc1ccccc1)C(=O)N[C@H](C(=O)N[C@@H](CS)C(=O)N[C@@H](Cc1c[nH]c2ccccc12)C(=O)N[C@@H](CC(C)C)C(=O)N[C@@H](CC(C)C)C(=O)N[C@@H](C)C(=O)NCC(=O)NCC(=O)N1CCC[C@H]1C(=O)N[C@@H](CO)C(=O)N[C@@H](CO)C(=O)NCC(=O)N[C@@H](C)C(=O)N1CCC[C@H]1C(=O)N1CCC[C@H]1C(=O)N1CCC[C@H]1C(=O)N[C@@H](CO)C(=O)N[C@@H](CCCCN)C(N)=O)C(C)C [SEQ ID NO: 230] (H-H[Aib]QGTFTSDYSIYLDEKRAKEFVCWLLAGGPSSGAPPPSK-NH2; N-terminus assumed)

SMILES: CC[C@H](C)[C@H](NC(=O)[C@H](CO)NC(=O)[C@H](Cc1ccc(O)cc1)NC(=O)[C@H](CC(=O)O)NC(=O)[C@H](CO)NC(=O)[C@@H](NC(=O)[C@H](Cc1ccccc1)NC(=O)[C@@H](NC(=O)CNC(=O)[C@H](CCC(N)=O)NC(=O)[C@@H](CO)NC(=O)[C@@H](N)Cc1ccc(O)cc1)[C@@H](C)O)[C@@H](C)O)C(=O)N[C@@H](Cc1ccc(O)cc1)C(=O)N[C@@H](CC(C)C)C(=O)N[C@@H](CC(=O)O)C(=O)N[C@@H](CCCCN)C(=O)N[C@@H](CCC(N)=O)C(=O)N[C@@H](C)C(=O)N[C@@H](C)C(=O)NC(C)(C)C(=O)N[C@@H](CCC(=O)O)C(=O)N[C@@H](Cc1ccccc1)C(=O)N[C@H](C(=O)N[C@@H](CC(N)=O)C(=O)N[C@@H](Cc1c[nH]c2ccccc12)C(=O)N[C@@H](CC(C)C)C(=O)N[C@@H](CC(C)C)C(=O)N[C@@H](C)C(=O)NCC(=O)NCC(=O)N1CCC[C@H]1C(=O)N[C@@H](CO)C(=O)N[C@@H](CO)C(=O)NCC(=O)N[C@@H](C)C(=O)N1CCC[C@H]1C(=O)N1CCC[C@H]1C(=O)N1CCC[C@H]1C(=O)N[C@@H](CO)C(=O)N[C@@H](CS)C(N)=O)C(C)C [compound 50]
EC50 (GLP-1 receptor; [1]): 0.108 nM

— patent publication US9587005B2 (priority 2010, dated 2017)
